# Values quoted from earlier work in patent US11701355B2, “Levosimendan for treating pulmonary hypertension with heart failure with preserved ejection fraction (PH-HFpEF)” (Tenax Therapeutics, Inc., priority 2019, dated 2023).
# How the values were obtained:
# [1] = test system: patients with left heart disease; settings: in vivo; cited from earlier work
# HFpEF patients [2] = settings: inhaled 3 times a day for 4 weeks; cited from earlier work
# HFpEF patients [3] = settings: in vivo; cited from earlier work
# PH-HFpEF patients [4] = settings: after 12 weeks, 52 patients; cited from earlier work
# patients with HFpEF = settings: long term treatment, 216 patients; cited from earlier work
# HFpEF patients [5] = settings: in vivo; cited from earlier work; remark: listed apart in the source
# PH-HFpEF patients [6] = settings: acute; cited from earlier work
# patients with PH-HFpEF = settings: in vivo; cited from earlier work
# PDE4 = settings: in vitro; cited from earlier work
# [7] = test system: whole cardiomyocytes and isolated contractile apparatus preparations; settings: cited from earlier work
# [8] = heart failure subjects; cited from earlier work
# [9] = test system: phosphodiesterase-3 (PDE3); settings: in vitro; cited from earlier work
compound,measurement,setting,value
CCCNS(=O)(=O)Nc1ncnc(OCCOc2ncc(Br)cn2)c1-c1ccc(Br)cc1 [macitentan],"hemodynamic parameters (pulmonary vascular resistance, mean pulmonary arterial pressure, pulmonary artery wedge pressure)",[1],no change
O=NO [sodium nitrite],primary endpoint of peak oxygen consumption during cardiopulmonary exercise; secondary endpoints,HFpEF patients [2],unable to demonstrate any improvement
COC(=O)Nc1c(N)nc(-c2nn(Cc3ccccc3F)c3ncc(F)cc23)nc1N [vericiguat],primary endpoints,HFpEF patients [3],no significant changes
CCCc1nn(C)c2c(=O)[nH]c(-c3cc(S(=O)(=O)N4CCN(C)CC4)ccc3OCC)nc12 [sildenafil],mPAP,PH-HFpEF patients [4],no change
same,"six-minute walk time, clinical status, or quality of life",patients with HFpEF,failed to improve
sacubitril/valsartan,reduction in the primary endpoint,HFpEF patients [5],not statistically significant
COC(=O)N(C)c1c(N)nc(-c2nn(Cc3ccccc3F)c3ncccc23)nc1N [riociguat],TPG or pulmonary vascular resistance,PH-HFpEF patients [6],no change
same,"primary outcome, mean pulmonary arterial pressure",PH-HFpEF patients [6],not achieved
COc1ccccc1Oc1c(NS(=O)(=O)c2ccc(C(C)(C)C)cc2)nc(-c2ncccn2)nc1OCCO [bosentan],clinical outcomes compared with placebo,patients with PH-HFpEF,worse clinical outcomes
same,six minute walk test or echocardiographic evaluation of pulmonary hypertension,patients with PH-HFpEF,no improvements
"CC(=O)Nc1ccc(C2=NNC(=O)C[C@H]2C)cc1 [OR-1896, (R)-N-(4-(4-methyl-6-oxo-1,4,5,6-tetrahydropyridazin-3-yl)phenyl) acetamide]",potency in the inhibition of PDE4 compared with levosimendan,PDE4,profoundly less potent
same,inotropic effects compared with levosimendan,[7],equipotent to levosimendan
same,half-life,[8],70 to 80 h
same,potency in the inhibition of PDE3 compared with levosimendan,[9],profoundly less potent
